Experimental data as given in ChEMBL document CHEMBL1137334 (J Med Chem, 2006).
Values after ≈ are worked out from the molar mass of the structure shown.

Assays:
[1] = tested on: A549; experiment: Inhibition of A549 cell migration by microdroplet migration assay; type: functional, cell-based; conditions: Homo sapiens
[2] = molecular target: Vascular endothelial growth factor receptor 2 (Homo sapiens, UniProt P35968); experiment: Inhibition of KDR
[3] = molecular target: Proto-oncogene tyrosine-protein kinase Src (Homo sapiens, UniProt P12931)
Sequence of Proto-oncogene tyrosine-protein kinase Src (P12931 2-536 limits assumed): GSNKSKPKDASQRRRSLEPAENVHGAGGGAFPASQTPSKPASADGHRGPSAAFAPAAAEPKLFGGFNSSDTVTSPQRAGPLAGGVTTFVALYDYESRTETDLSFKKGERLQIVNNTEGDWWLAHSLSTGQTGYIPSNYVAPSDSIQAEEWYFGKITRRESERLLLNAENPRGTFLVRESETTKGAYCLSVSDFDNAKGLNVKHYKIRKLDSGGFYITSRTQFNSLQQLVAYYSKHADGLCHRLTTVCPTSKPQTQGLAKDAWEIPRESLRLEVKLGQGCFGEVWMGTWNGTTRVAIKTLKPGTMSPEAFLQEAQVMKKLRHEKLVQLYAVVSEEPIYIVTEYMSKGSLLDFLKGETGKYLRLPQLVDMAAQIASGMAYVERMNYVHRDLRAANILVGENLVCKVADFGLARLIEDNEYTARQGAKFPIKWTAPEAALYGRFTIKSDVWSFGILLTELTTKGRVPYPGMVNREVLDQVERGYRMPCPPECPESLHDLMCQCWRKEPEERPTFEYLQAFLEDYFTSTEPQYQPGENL
Description: Inhibition of human c-Src in NIH3T3 cells

[4] = AUC (0-24h) in mouse at 20 mg/kg, po; type: ADME, organism-based; set-up: time < 24 hr, dose 20 mg/kg, route oral; conditions: plasma
[5] = Dissociation constant, pKa of the basic side chain of compound; type: physicochemical
[6] = Lipophilicity, log D at pH 7.4; type: physicochemical; conditions: buffer
[7] = Aqueous solubility at pH 7.4; type: physicochemical
[8] = Percent of unbound ligand in rat plasma; type: ADME, organism-based
[9] = species on record: Canis familiaris; experiment: Volume of distribution in male dog; type: ADME, organism-based, Canis lupus familiaris; conditions: in vivo
[10] = species on record: Canis familiaris; experiment: Half life in male dog; type: ADME, organism-based, Canis lupus familiaris; conditions: in vivo
[11] = Bioavailability in male dog; type: ADME, organism-based, Canis lupus familiaris; conditions: in vivo

Sequence of Vascular endothelial growth factor receptor 2 (P35968 whole entry): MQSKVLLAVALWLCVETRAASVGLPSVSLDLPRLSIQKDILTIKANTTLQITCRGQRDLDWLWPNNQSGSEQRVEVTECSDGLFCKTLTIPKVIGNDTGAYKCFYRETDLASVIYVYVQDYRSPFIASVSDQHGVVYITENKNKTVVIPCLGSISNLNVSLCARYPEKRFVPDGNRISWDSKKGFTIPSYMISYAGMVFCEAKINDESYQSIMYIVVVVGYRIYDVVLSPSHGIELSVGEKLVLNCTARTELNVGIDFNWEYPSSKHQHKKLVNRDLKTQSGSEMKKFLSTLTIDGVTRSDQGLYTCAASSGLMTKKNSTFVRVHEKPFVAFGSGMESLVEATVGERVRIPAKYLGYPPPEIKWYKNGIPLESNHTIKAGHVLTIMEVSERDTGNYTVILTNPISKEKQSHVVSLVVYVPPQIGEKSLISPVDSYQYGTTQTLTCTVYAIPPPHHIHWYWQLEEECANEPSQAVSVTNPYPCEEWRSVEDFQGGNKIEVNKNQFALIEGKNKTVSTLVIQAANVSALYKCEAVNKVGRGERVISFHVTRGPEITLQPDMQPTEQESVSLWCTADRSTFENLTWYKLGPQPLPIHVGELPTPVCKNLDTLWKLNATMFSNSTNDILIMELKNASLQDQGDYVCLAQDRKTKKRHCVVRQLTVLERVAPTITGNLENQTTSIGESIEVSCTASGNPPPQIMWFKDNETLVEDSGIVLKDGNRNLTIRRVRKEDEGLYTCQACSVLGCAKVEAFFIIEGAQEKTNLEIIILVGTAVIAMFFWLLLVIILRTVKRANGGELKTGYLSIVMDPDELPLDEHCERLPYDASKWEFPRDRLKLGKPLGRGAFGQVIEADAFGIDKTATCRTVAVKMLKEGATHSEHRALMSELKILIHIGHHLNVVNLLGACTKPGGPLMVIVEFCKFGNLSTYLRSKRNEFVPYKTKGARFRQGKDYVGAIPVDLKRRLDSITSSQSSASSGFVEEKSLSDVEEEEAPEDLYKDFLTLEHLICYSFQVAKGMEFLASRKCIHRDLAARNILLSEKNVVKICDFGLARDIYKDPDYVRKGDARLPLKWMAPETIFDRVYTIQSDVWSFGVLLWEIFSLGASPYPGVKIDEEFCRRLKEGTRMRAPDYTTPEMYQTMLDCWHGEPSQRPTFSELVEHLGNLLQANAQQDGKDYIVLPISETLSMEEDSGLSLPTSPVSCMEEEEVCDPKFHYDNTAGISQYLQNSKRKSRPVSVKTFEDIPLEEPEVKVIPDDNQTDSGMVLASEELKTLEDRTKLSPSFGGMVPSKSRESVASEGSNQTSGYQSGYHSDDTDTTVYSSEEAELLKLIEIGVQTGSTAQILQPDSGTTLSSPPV

IC50 [1] [nM] | IC50 [2] [nM] | IC50 [3] [nM] | Structure (SMILES) | further results
300 | 40 | < 4 | COc1ccc(Cl)c(Nc2ncnc3cc(OCCCN4CCN(C)CC4)cc(OC4CCOCC4)c23)c1 | 
 | 500 | 570 | COc1cc(OC2CCN(C)CC2)c2c(Nc3cccc4c3OCCO4)ncnc2c1 | 
 |  | 100 | CC(C)Oc1cc(OC2CCN(C)CC2)c2c(Nc3c(Cl)ccc4c3OCO4)ncnc2c1 | 
 | 50 | 85 | c1cc(Nc2ncnc3cc(OCCN4CCCC4)cc(OC4CCOCC4)c23)c2c(c1)OCCO2 | 
 |  | 230 | COc1ccc(Cl)c(Nc2ncnc3cc(OC)cc(OCCCN4CCOCC4)c23)c1 | 
400 |  |  | COc1ccc(Cl)c(Nc2ncnc3cc(OCCCN4CCOCC4)cc(OC(C)C)c23)c1 | 
700 |  | 100 | CN1CCC(Oc2cccc3ncnc(Nc4c(Cl)ccc5c4OCO5)c23)CC1 | 
 | 2500 | 150 | COc1cc(OC2CCN(C)CC2)c2c(Nc3cccc4c3OCO4)ncnc2c1 | 
300 | > 2000 | 30 | COc1ccc(Cl)c(Nc2ncnc3cc(OC)cc(OC4CCN(C)CC4)c23)c1 | 
 |  | 400 | COc1ccc(Cl)c(Nc2ncnc3cccc(OC4CCOCC4)c23)c1 | 
300 | > 10000 | 6 | Clc1ccc2c(c1Nc1ncnc3cc(OCCN4CCCC4)cc(OC4CCOCC4)c13)OCO2 | AUC(0-t) at 24 h [4]: 9000 ng·h/mL
 |  | 5 | COc1cc2c(Nc3c(Cl)ccc4c3OCO4)ncnc2cc1OCCCN1CCCC1 | AUC(0-t) at 24 h [4]: 13000 ng·h/mL
 | 650 | 80 | c1cc(Nc2ncnc3cc(OCCN4CCCC4)cc(OC4CCOCC4)c23)c2c(c1)OCO2 | 
 | > 5000 | 300 | COc1ccc(Cl)c(Nc2ncnc3cccc(OC4CCN(C)CC4)c23)c1 | 
290 | 6500 | 20 | CC(=O)N1CCN(CCOc2cc(OC(C)C)c3c(Nc4c(F)ccc5c4OCO5)ncnc3c2)CC1 | 
1200 | 5000 | 75 | Clc1ccc2c(c1Nc1ncnc3cc(OCCN4CCCC4)cc(N4CCOCC4)c13)OCO2 | 
 |  | 600 | COc1ccc(Cl)c(Nc2ncnc3ccc(OCCCN4CCN(C)CC4)c(OC4CCOCC4)c23)c1 | 
100 | 10000 | 5 | CC(C)Oc1cc(OCCN2CCOCC2)cc2ncnc(Nc3c(Cl)ccc4c3OCO4)c12 | pKa [5]: 6.5; logD [6]: 3.7; solubility [7]: 2 µM (≈ 0.974 µg/mL); fraction unbound [8]: 0.025
 |  | 500 | CN1CCC(COc2cccc3ncnc(Nc4c(Cl)ccc5c4OCO5)c23)CC1 | 
 | 50 | < 4 | COc1ccc(Cl)c(Nc2ncnc3cc(OCCCN4CCOCC4)cc(OC4CCOC4)c23)c1 (racemic) | 
480 |  |  | COc1ccc(Cl)c(Nc2ncnc3cc(OCC4CCN(C)CC4)c(OC)cc23)c1 [AZM-475271] | pKa [5]: 9; logD [6]: 2; Vdss [9]: 43 L/kg; T1/2 [10]: 4.2 h; solubility [7]: 324 µM (≈ 144 µg/mL); fraction unbound [8]: 0.075; bioavailability [11]: 42%
